# Experimental data as given in ChEMBL document CHEMBL1157912, “Impact of nature and length of linker incorporated in agonists on toll-like receptor 9-mediated immune responses” (J Med Chem, 2010).
# Target: T1, Toll-like receptor 9 (Homo sapiens) (UniProt Q9NR96)
# T1 sequence (whole entry): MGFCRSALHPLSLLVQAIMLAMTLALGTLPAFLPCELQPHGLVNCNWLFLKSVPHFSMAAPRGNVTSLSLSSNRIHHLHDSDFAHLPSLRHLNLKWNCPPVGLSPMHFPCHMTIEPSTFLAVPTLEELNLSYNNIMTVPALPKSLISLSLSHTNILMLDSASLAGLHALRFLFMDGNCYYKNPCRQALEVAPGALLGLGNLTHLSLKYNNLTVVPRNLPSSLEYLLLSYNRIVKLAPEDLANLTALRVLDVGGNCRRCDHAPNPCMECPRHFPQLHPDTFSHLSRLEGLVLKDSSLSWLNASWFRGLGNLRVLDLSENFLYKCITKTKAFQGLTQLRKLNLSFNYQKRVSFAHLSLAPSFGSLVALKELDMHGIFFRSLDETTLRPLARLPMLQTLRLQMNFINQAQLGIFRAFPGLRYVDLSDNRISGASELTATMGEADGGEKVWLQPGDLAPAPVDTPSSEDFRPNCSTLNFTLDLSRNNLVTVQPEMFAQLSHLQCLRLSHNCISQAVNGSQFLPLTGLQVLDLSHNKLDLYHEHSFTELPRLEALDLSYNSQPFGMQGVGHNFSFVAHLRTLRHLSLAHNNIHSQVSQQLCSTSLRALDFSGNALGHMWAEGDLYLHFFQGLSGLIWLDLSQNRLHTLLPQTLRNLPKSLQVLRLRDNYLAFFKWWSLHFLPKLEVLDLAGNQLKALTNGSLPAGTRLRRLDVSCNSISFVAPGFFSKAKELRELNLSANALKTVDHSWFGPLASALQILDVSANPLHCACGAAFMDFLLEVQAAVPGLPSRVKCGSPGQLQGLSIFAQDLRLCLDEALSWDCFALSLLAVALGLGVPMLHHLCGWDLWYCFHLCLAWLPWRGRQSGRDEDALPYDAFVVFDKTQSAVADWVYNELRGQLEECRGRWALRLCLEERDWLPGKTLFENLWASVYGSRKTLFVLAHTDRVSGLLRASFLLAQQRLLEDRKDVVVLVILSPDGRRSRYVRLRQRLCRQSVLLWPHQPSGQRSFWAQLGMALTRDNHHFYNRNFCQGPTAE
# Experiment: Induction of TLR9-mediated immune stimulation in human PBMC assessed as IP10 production at 2 ug/ml after 24 hrs by luminex multiplex assay (RVb = 0.00 ng/ml)
row,Activity [ng/mL],Compound
1,0.79,Cc1cn([C@H]2C[C@H](OCC[C@H](O)COP(=O)(S)O[C@H]3C[C@H](n4cc(C)c(=O)[nH]c4=O)O[C@@H]3COP(=O)(S)O[C@H]3[C@@H](O)[C@H](n4ccc(N)nc4=O)O[C@@H]3COP(=O)(S)O[C@H]3C[C@H](n4cc(C)c(=O)[nH]c4=O)O[C@@H]3COP(=O)(S)O[C@H]3C[C@H](n4cc(C)c(=O)[nH]c4=O)O[C@@H]3COP(=O)(S)O[C@H]3C[C@H](n4ccc5c(=O)[nH]c(N)nc54)O[C@@H]3COP(=O)(S)O[C@H]3[C@@H](O)[C@H](n4ccc(N)nc4=O)O[C@@H]3COP(=O)(S)O[C@H]3C[C@H](n4cc(C)c(=O)[nH]c4=O)O[C@@H]3COP(=O)(S)O[C@H]3[C@@H](O)[C@H](n4cnc5c(=O)[nH]c(N)nc54)O[C@@H]3COP(=O)(S)O[C@H]3C[C@H](n4cc(C)c(=O)[nH]c4=O)O[C@@H]3COP(=O)(S)O[C@H]3[C@@H](O)[C@H](n4ccc(N)nc4=O)O[C@@H]3COP(=O)(S)O[C@H]3C[C@H](n4cc(C)c(=O)[nH]c4=O)O[C@@H]3CO)[C@@H](COP(=O)(S)O[C@H]3[C@@H](O)[C@H](n4ccc(N)nc4=O)O[C@@H]3COP(=O)(S)O[C@H]3C[C@H](n4cc(C)c(=O)[nH]c4=O)O[C@@H]3COP(=O)(S)O[C@H]3C[C@H](n4cc(C)c(=O)[nH]c4=O)O[C@@H]3COP(=O)(S)O[C@H]3C[C@H](n4ccc5c(=O)[nH]c(N)nc54)O[C@@H]3COP(=O)(S)O[C@H]3[C@@H](O)[C@H](n4ccc(N)nc4=O)O[C@@H]3COP(=O)(S)O[C@H]3C[C@H](n4cc(C)c(=O)[nH]c4=O)O[C@@H]3COP(=O)(S)O[C@H]3[C@@H](O)[C@H](n4cnc5c(=O)[nH]c(N)nc54)O[C@@H]3COP(=O)(S)O[C@H]3C[C@H](n4cc(C)c(=O)[nH]c4=O)O[C@@H]3COP(=O)(S)O[C@H]3[C@@H](O)[C@H](n4ccc(N)nc4=O)O[C@@H]3COP(=O)(S)O[C@H]3C[C@H](n4cc(C)c(=O)[nH]c4=O)O[C@@H]3CO)O2)c(=O)[nH]c1=O (some centres undefined)
2,0.02,Cc1cn([C@H]2C[C@H](OCCC(O)CCOP(=O)(S)O[C@H]3C[C@H](n4cc(C)c(=O)[nH]c4=O)O[C@@H]3COP(=O)(S)O[C@H]3[C@@H](O)[C@H](n4ccc(N)nc4=O)O[C@@H]3COP(=O)(S)O[C@H]3C[C@H](n4cc(C)c(=O)[nH]c4=O)O[C@@H]3COP(=O)(S)O[C@H]3C[C@H](n4cc(C)c(=O)[nH]c4=O)O[C@@H]3COP(=O)(S)O[C@H]3C[C@H](n4ccc5c(=O)[nH]c(N)nc54)O[C@@H]3COP(=O)(S)O[C@H]3[C@@H](O)[C@H](n4ccc(N)nc4=O)O[C@@H]3COP(=O)(S)O[C@H]3C[C@H](n4cc(C)c(=O)[nH]c4=O)O[C@@H]3COP(=O)(S)O[C@H]3[C@@H](O)[C@H](n4cnc5c(=O)[nH]c(N)nc54)O[C@@H]3COP(=O)(S)O[C@H]3C[C@H](n4cc(C)c(=O)[nH]c4=O)O[C@@H]3COP(=O)(S)O[C@H]3[C@@H](O)[C@H](n4ccc(N)nc4=O)O[C@@H]3COP(=O)(S)O[C@H]3C[C@H](n4cc(C)c(=O)[nH]c4=O)O[C@@H]3CO)[C@@H](COP(=O)(S)O[C@H]3[C@@H](O)[C@H](n4ccc(N)nc4=O)O[C@@H]3COP(=O)(S)O[C@H]3C[C@H](n4cc(C)c(=O)[nH]c4=O)O[C@@H]3COP(=O)(S)O[C@H]3C[C@H](n4cc(C)c(=O)[nH]c4=O)O[C@@H]3COP(=O)(S)O[C@H]3C[C@H](n4ccc5c(=O)[nH]c(N)nc54)O[C@@H]3COP(=O)(S)O[C@H]3[C@@H](O)[C@H](n4ccc(N)nc4=O)O[C@@H]3COP(=O)(S)O[C@H]3C[C@H](n4cc(C)c(=O)[nH]c4=O)O[C@@H]3COP(=O)(S)O[C@H]3[C@@H](O)[C@H](n4cnc5c(=O)[nH]c(N)nc54)O[C@@H]3COP(=O)(S)O[C@H]3C[C@H](n4cc(C)c(=O)[nH]c4=O)O[C@@H]3COP(=O)(S)O[C@H]3[C@@H](O)[C@H](n4ccc(N)nc4=O)O[C@@H]3COP(=O)(S)O[C@H]3C[C@H](n4cc(C)c(=O)[nH]c4=O)O[C@@H]3CO)O2)c(=O)[nH]c1=O (some centres undefined)
3,0.02,Cc1cn([C@H]2C[C@H](OCCOCCOCCOCCOP(=O)(S)O[C@H]3C[C@H](n4cc(C)c(=O)[nH]c4=O)O[C@@H]3COP(=O)(S)O[C@H]3[C@@H](O)[C@H](n4ccc(N)nc4=O)O[C@@H]3COP(=O)(S)O[C@H]3C[C@H](n4cc(C)c(=O)[nH]c4=O)O[C@@H]3COP(=O)(S)O[C@H]3C[C@H](n4cc(C)c(=O)[nH]c4=O)O[C@@H]3COP(=O)(S)O[C@H]3C[C@H](n4ccc5c(=O)[nH]c(N)nc54)O[C@@H]3COP(=O)(S)O[C@H]3[C@@H](O)[C@H](n4ccc(N)nc4=O)O[C@@H]3COP(=O)(S)O[C@H]3C[C@H](n4cc(C)c(=O)[nH]c4=O)O[C@@H]3COP(=O)(S)O[C@H]3[C@@H](O)[C@H](n4cnc5c(=O)[nH]c(N)nc54)O[C@@H]3COP(=O)(S)O[C@H]3C[C@H](n4cc(C)c(=O)[nH]c4=O)O[C@@H]3COP(=O)(S)O[C@H]3[C@@H](O)[C@H](n4ccc(N)nc4=O)O[C@@H]3COP(=O)(S)O[C@H]3C[C@H](n4cc(C)c(=O)[nH]c4=O)O[C@@H]3CO)[C@@H](COP(=O)(S)O[C@H]3[C@@H](O)[C@H](n4ccc(N)nc4=O)O[C@@H]3COP(=O)(S)O[C@H]3C[C@H](n4cc(C)c(=O)[nH]c4=O)O[C@@H]3COP(=O)(S)O[C@H]3C[C@H](n4cc(C)c(=O)[nH]c4=O)O[C@@H]3COP(=O)(S)O[C@H]3C[C@H](n4ccc5c(=O)[nH]c(N)nc54)O[C@@H]3COP(=O)(S)O[C@H]3[C@@H](O)[C@H](n4ccc(N)nc4=O)O[C@@H]3COP(=O)(S)O[C@H]3C[C@H](n4cc(C)c(=O)[nH]c4=O)O[C@@H]3COP(=O)(S)O[C@H]3[C@@H](O)[C@H](n4cnc5c(=O)[nH]c(N)nc54)O[C@@H]3COP(=O)(S)O[C@H]3C[C@H](n4cc(C)c(=O)[nH]c4=O)O[C@@H]3COP(=O)(S)O[C@H]3[C@@H](O)[C@H](n4ccc(N)nc4=O)O[C@@H]3COP(=O)(S)O[C@H]3C[C@H](n4cc(C)c(=O)[nH]c4=O)O[C@@H]3CO)O2)c(=O)[nH]c1=O (some centres undefined)
4,0.03,Cc1cn([C@H]2C[C@H](OCC(O)COP(=O)(S)O[C@H]3C[C@H](n4cc(C)c(=O)[nH]c4=O)O[C@@H]3COP(=O)(S)O[C@H]3[C@@H](O)[C@H](n4ccc(N)nc4=O)O[C@@H]3COP(=O)(S)O[C@H]3C[C@H](n4cc(C)c(=O)[nH]c4=O)O[C@@H]3COP(=O)(S)O[C@H]3C[C@H](n4cc(C)c(=O)[nH]c4=O)O[C@@H]3COP(=O)(S)O[C@H]3C[C@H](n4ccc5c(=O)[nH]c(N)nc54)O[C@@H]3COP(=O)(S)O[C@H]3[C@@H](O)[C@H](n4ccc(N)nc4=O)O[C@@H]3COP(=O)(S)O[C@H]3C[C@H](n4cc(C)c(=O)[nH]c4=O)O[C@@H]3COP(=O)(S)O[C@H]3[C@@H](O)[C@H](n4cnc5c(=O)[nH]c(N)nc54)O[C@@H]3COP(=O)(S)O[C@H]3C[C@H](n4cc(C)c(=O)[nH]c4=O)O[C@@H]3COP(=O)(S)O[C@H]3[C@@H](O)[C@H](n4ccc(N)nc4=O)O[C@@H]3COP(=O)(S)O[C@H]3C[C@H](n4cc(C)c(=O)[nH]c4=O)O[C@@H]3CO)[C@@H](COP(=O)(S)O[C@H]3[C@@H](O)[C@H](n4ccc(N)nc4=O)O[C@@H]3COP(=O)(S)O[C@H]3C[C@H](n4cc(C)c(=O)[nH]c4=O)O[C@@H]3COP(=O)(S)O[C@H]3C[C@H](n4cc(C)c(=O)[nH]c4=O)O[C@@H]3COP(=O)(S)O[C@H]3C[C@H](n4ccc5c(=O)[nH]c(N)nc54)O[C@@H]3COP(=O)(S)O[C@H]3[C@@H](O)[C@H](n4ccc(N)nc4=O)O[C@@H]3COP(=O)(S)O[C@H]3C[C@H](n4cc(C)c(=O)[nH]c4=O)O[C@@H]3COP(=O)(S)O[C@H]3[C@@H](O)[C@H](n4cnc5c(=O)[nH]c(N)nc54)O[C@@H]3COP(=O)(S)O[C@H]3C[C@H](n4cc(C)c(=O)[nH]c4=O)O[C@@H]3COP(=O)(S)O[C@H]3[C@@H](O)[C@H](n4ccc(N)nc4=O)O[C@@H]3COP(=O)(S)O[C@H]3C[C@H](n4cc(C)c(=O)[nH]c4=O)O[C@@H]3CO)O2)c(=O)[nH]c1=O (some centres undefined)
